Source: patent publication US5110800A, “Derivatives of erythromycylamine” (Eli Lilly and Company, priority 1989, dated 1992)
Values after ≈ are worked out from the molar mass of the structure shown. Where two headings read alike, the source gives them in different places.

Experiments:
[1] = tested on: Staphylococcus aureus X400; assay: MIC, standard agar-dilution assay; type: cell-based; details: methicillin-resistant strain, inducibly erythromycin-resistant; for MIC: Staphylococcus aureus, X400, Table V, read-out: minimal inhibitory concentration (MIC)
Description: (§1) In addition to excellent in vitro activity against erythromycin-sensitive bacteria, several members of this new series have shown in vitro activity against erythromycin-resistant strains. These include strains which are inducibly-resistant to erythromycin (S. aureus V41 and X400 and S. epidermidis EPI1) and even strains which are constitutively-resistant (S. epidermidis 270).

[2] = tested on: Staphylococcus epidermidis EPI1; assay: MIC, standard agar-dilution assay; type: cell-based; details: EPI1, read-out: minimal inhibitory concentration (MIC)
Description: as §1

[3] = tested on: Staphylococcus aureus V41; assay: MIC, standard agar-dilution assay; type: cell-based; details: penicillin-resistant strain, inducibly erythromycin-resistant; for MIC: Staphylococcus aureus, V41, Table V, read-out: minimal inhibitory concentration (MIC)
Description: as §1

[4] = tested on: Streptococcus sp. group D 2041; assay: MIC, standard agar-dilution assay; type: cell-based; details: for MIC: Streptococcus, read-out: minimal inhibitory concentration (MIC)
[5] = tested on: Streptococcus pneumoniae Park I; assay: MIC, standard agar-dilution assay; type: cell-based; details: for MIC: Streptococcus pneumoniae, read-out: minimal inhibitory concentration (MIC)
[6] = tested on: Staphylococcus aureus X1.1; assay: MIC, standard agar-dilution assay; type: cell-based; details: for MIC: Staphylococcus aureus, X1.1, read-out: minimal inhibitory concentration (MIC)
[7] = tested on: Streptococcus pyogenes C203; assay: MIC, standard agar-dilution assay; type: cell-based; details: for MIC: Streptococcus pyogenes, C203, read-out: minimal inhibitory concentration (MIC)
[8] = tested on: Streptococcus sp. group D X66; assay: MIC, standard agar-dilution assay; type: cell-based; details: for MIC: Streptococcus, read-out: minimal inhibitory concentration (MIC)
[9] = tested on: Staphylococcus epidermidis 222; assay: MIC, standard agar-dilution assay; type: cell-based; details: for MIC: Staphylococcus epidermidis, 222, read-out: minimal inhibitory concentration (MIC)
Escherichia coli EC14 = assay: MIC, standard agar-dilution assay; type: cell-based; details: for MIC: Escherichia coli
[10] = tested on: Haemophilus influenzae 76; assay: MIC, standard agar-dilution assay; type: cell-based; details: ampicillin-resistant strain
[11] = tested on: Staphylococcus aureus S13E; assay: MIC, standard agar-dilution assay; type: cell-based
[12] = tested on: Haemophilus influenzae C.L.; assay: MIC, standard agar-dilution assay; type: cell-based; details: for MIC: Haemophilus influenzae, read-out: minimal inhibitory concentration (MIC)
[13] = tested on: Klebsiella pneumoniae X68; assay: MIC, standard agar-dilution assay; type: cell-based; details: for MIC: Klebsiella pneumoniae
[14] = tested on: Staphylococcus epidermidis 270; assay: MIC, standard agar-dilution assay; type: cell-based; details: Table IV; constitutively erythromycin-resistant
Description: as §1

Staphylococcus aureus = assay: Oral ED50 against experimental infection in mice; type: in vivo; details: two doses, protects 50% of animals
Experimental: (§2) The new derivatives of this invention have also shown in vivo antimicrobial activity against experimental bacterial infections. When two doses of test compound were administered to mice in experimental infections, the activity observed was measured as an ED50 value [effective dose in mg/kg to protect 50% of the test animals: see Warren Wick, et al., J. Bacteriol. 81, 233-235 (1961)].

Streptococcus pneumoniae = assay: Oral ED50 against experimental infection in mice; type: in vivo; details: two doses, protects 50% of animals
Experimental: as §2

Streptococcus pyogenes = assay: Oral ED50 against experimental infection in mice; type: in vivo; details: two doses, protects 50% of animals
Experimental: as §2

[15] = EC14, Table V, agar dilution, read-out: minimal inhibitory concentration (MIC)
[16] = X68, Table V, agar dilution, read-out: minimal inhibitory concentration (MIC)

## CC[C@H]1OC(=O)[C@H](C)[C@@H](O[C@H]2C[C@@](C)(OC)[C@@H](O)[C@H](C)O2)[C@H](C)[C@@H](O[C@@H]2O[C@H](C)C[C@H](N(C)C)[C@H]2O)[C@](C)(O)C[C@@H](C)[C@H]2[C@H](C)[C@@H](OCN2C2CCCC2)[C@]1(C)O [Compound 60, 9-Deoxo-9-(cyclopentylamino)-9,11(N,O)-cyclic Methylene Adduct of Erythromycin]
[1]
  MIC: > 128 µg/mL
[2]
  MIC: > 128 µg/mL
[3]
  MIC: > 128 µg/mL
[4]
  MIC: 8 µg/mL (≈ 9.81 µM)
[5]
  MIC: 0.06 µg/mL (≈ 0.0736 µM)
[6]
  MIC: 1 µg/mL (≈ 1.23 µM)
[7]
  MIC: 0.125 µg/mL (≈ 0.153 µM)
[8]
  MIC: 0.5 µg/mL (≈ 0.613 µM)
[9]
  MIC: 1 µg/mL (≈ 1.23 µM)

## CC[C@H]1OC(=O)[C@H](C)[C@@H](O[C@H]2C[C@@](C)(OC)[C@@H](O)[C@H](C)O2)[C@H](C)[C@@H](O[C@@H]2O[C@H](C)C[C@H](N(C)C)[C@H]2O)[C@](C)(O)C[C@@H](C)[C@H]2[C@H](C)[C@@H](OCN2C(C)CCCN(C)C)[C@]1(C)O (stereo partly shown) [Compound 63, 9-Deoxo-9-[(5-dimethylamino-2-pentyl)amino]-9,11-(N,O)-cyclic-Methylene Adduct of Erythromycin]
[1]
  MIC: > 128 µg/mL
[2]
  MIC: > 128 µg/mL
[3]
  MIC: > 128 µg/mL
[4]; Table V, agar dilution
  MIC: 32 µg/mL (≈ 37.2 µM)
[5]
  MIC: 0.5 µg/mL (≈ 0.581 µM)
[6]
  MIC: 8 µg/mL (≈ 9.3 µM)
Escherichia coli EC14; [15]
  MIC: 32 µg/mL (≈ 37.2 µM)
[7]
  MIC: 0.5 µg/mL (≈ 0.581 µM)
[10]; Haemophilus influenzae, 76, Table V, read-out: minimal inhibitory concentration (MIC)
  MIC: 8 µg/mL (≈ 9.3 µM)
[11]; Staphylococcus aureus, S13E, read-out: minimal inhibitory concentration (MIC)
  MIC: 8 µg/mL (≈ 9.3 µM)
[8]
  MIC: 2 µg/mL (≈ 2.33 µM)
[9]
  MIC: 8 µg/mL (≈ 9.3 µM)
[12]; Table V, ampicillin-sensitive strain
  MIC: 8 µg/mL (≈ 9.3 µM)
[13]; X68, read-out: minimal inhibitory concentration (MIC)
  MIC: 128 µg/mL (≈ 149 µM)

## CC[C@H]1OC(=O)[C@H](C)[C@@H](O[C@H]2C[C@@](C)(OC)[C@@H](O)[C@H](C)O2)[C@H](C)[C@@H](O[C@@H]2O[C@H](C)C[C@H](N(C)C)[C@H]2O)[C@](C)(O)C[C@@H](C)[C@H](N(C)C)[C@H](C)[C@@H](O)[C@]1(C)O [Compound 69, 9-Deoxo-9-(dimethylamino)erythromycin]
[2]
  MIC: > 128 µg/mL
Escherichia coli EC14; EC14, read-out: minimal inhibitory concentration (MIC)
  MIC: 128 µg/mL (≈ 168 µM)
[7]
  MIC: 0.25 µg/mL (≈ 0.328 µM)
[8]
  MIC: 0.5 µg/mL (≈ 0.655 µM)
[9]
  MIC: 2 µg/mL (≈ 2.62 µM)
[12]
  MIC: 2 µg/mL (≈ 2.62 µM)
[13]; [16]
  MIC: > 128 µg/mL

## CC[C@H]1OC(=O)[C@H](C)[C@@H](O[C@H]2C[C@@](C)(OC)[C@@H](O)[C@H](C)O2)[C@H](C)[C@@H](O[C@@H]2O[C@H](C)C[C@H](N(C)C)[C@H]2O)[C@](C)(O)C[C@@H](C)[C@H](N(C)C(C)C)[C@H](C)[C@@H](O)[C@]1(C)O [Compound 70, 9-Deoxo-9-[(N-methyl-N-isopropyl)amino]erythromycin]
[1]
  MIC: > 128 µg/mL
[2]
  MIC: > 128 µg/mL
[3]
  MIC: > 128 µg/mL
[5]
  MIC: 0.5 µg/mL (≈ 0.632 µM)
[6]
  MIC: 8 µg/mL (≈ 10.1 µM)
Escherichia coli EC14; [15]
  MIC: > 128 µg/mL
[7]
  MIC: 0.5 µg/mL (≈ 0.632 µM)
[8]
  MIC: 2 µg/mL (≈ 2.53 µM)
[9]
  MIC: 8 µg/mL (≈ 10.1 µM)
[13]; [16]
  MIC: > 128 µg/mL

## CC[C@H]1OC(=O)[C@H](C)[C@@H](O[C@H]2C[C@@](C)(OC)[C@@H](O)[C@H](C)O2)[C@H](C)[C@@H](O[C@@H]2O[C@H](C)C[C@H](N(C)C)[C@H]2O)[C@](C)(O)C[C@@H](C)[C@H](N(C)C2CCCCC2)[C@H](C)[C@@H](O)[C@]1(C)O [Compound 71, 9-Deoxo-9-[(N-cyclohexyl-N-methyl)amino]erythromycin]
[1]
  MIC: > 128 µg/mL
[2]
  MIC: > 128 µg/mL
[3]
  MIC: > 128 µg/mL
[4]
  MIC: 128 µg/mL (≈ 154 µM)
[5]
  MIC: 0.125 µg/mL (≈ 0.15 µM)
[6]
  MIC: 16 µg/mL (≈ 19.3 µM)
Escherichia coli EC14; [15]
  MIC: > 128 µg/mL
[7]
  MIC: 1 µg/mL (≈ 1.2 µM)
[8]
  MIC: 8 µg/mL (≈ 9.63 µM)
[9]
  MIC: 8 µg/mL (≈ 9.63 µM)
[13]; [16]
  MIC: > 128 µg/mL

## CC[C@H]1OC(=O)[C@H](C)[C@@H](O[C@H]2C[C@@](C)(OC)[C@@H](O)[C@H](C)O2)[C@H](C)[C@@H](O[C@@H]2O[C@H](C)C[C@H](N(C)C)[C@H]2O)[C@](C)(O)C[C@@H](C)[C@H](N2CCCCC2)[C@H](C)[C@@H](O)[C@]1(C)O [Compound 72, 9-Deoxo-9-(1-piperidinyl)erythromycin]
[1]
  MIC: > 128 µg/mL
[2]
  MIC: > 128 µg/mL
[3]
  MIC: > 128 µg/mL
[4]
  MIC: 128 µg/mL (≈ 159 µM)
[5]
  MIC: 1 µg/mL (≈ 1.25 µM)
[6]
  MIC: 16 µg/mL (≈ 19.9 µM)
Escherichia coli EC14; [15]
  MIC: > 128 µg/mL
[7]
  MIC: 1 µg/mL (≈ 1.25 µM)
[9]
  MIC: 8 µg/mL (≈ 9.96 µM)
[12]
  MIC: 2 µg/mL (≈ 2.49 µM)
[13]; [16]
  MIC: > 128 µg/mL

## Endo- and Exo-9-Deoxo-9-[(bicyclo[2.2.1]hept-2-en-5-yl-methyl)amino]erythromycin [Compound 19]
[1]; Table IV
  minimal inhibitory concentration (MIC): -- (-- = >128)
[14]
  minimal inhibitory concentration (MIC): -- (-- = >128)
[3]; Table IV
  minimal inhibitory concentration (MIC): -- (-- = >128)
[4]; Table IV, agar dilution
  minimal inhibitory concentration (MIC): 8 µg/mL
[5]; Table IV, agar dilution
  minimal inhibitory concentration (MIC): 0.015 µg/mL
[6]; Table IV, agar dilution
  minimal inhibitory concentration (MIC): 2 µg/mL
Escherichia coli EC14; Table IV, agar dilution
  minimal inhibitory concentration (MIC): 64 µg/mL
Staphylococcus aureus
  Oral ED50: > 50 mg/kg
Streptococcus pneumoniae
  Oral ED50: 25.0 mg/kg
Streptococcus pyogenes
  Oral ED50: 16.6 mg/kg
[7]; Table IV, agar dilution
  minimal inhibitory concentration (MIC): 0.25 µg/mL
[10]; Table IV
  minimal inhibitory concentration (MIC): 8 µg/mL
[11]; Table IV, agar dilution
  minimal inhibitory concentration (MIC): 2 µg/mL
[8]; Table IV, agar dilution
  minimal inhibitory concentration (MIC): 1 µg/mL
[9]; Table IV, agar dilution
  minimal inhibitory concentration (MIC): 1 µg/mL
[12]; Table IV, ampicillin-sensitive strain
  minimal inhibitory concentration (MIC): 8 µg/mL
[13]; Table IV, agar dilution
  minimal inhibitory concentration (MIC): -- (-- = >128)
